# Source: patent publication US7109338B2, “1,2-disubstituted 1,4-dihydro-4-oxoquinoline compounds” (priority 1999, dated 2006)
# Tests used:
# HRV 89 (41617-Gallo) = test: Anti-rhinovirus activity (MTT), HRV89; assay type: cell-based, human rhinovirus; settings: HeLa (Ohio strain) cells, MTT method, 33° C.
# HeLa-S3 cells = test: Cytotoxicity (MTT, without virus), HeLa-S3; settings: HeLa-S3, no virus, incubated for 4 days
# HRV 2 (HGP) = test: Anti-rhinovirus activity (MTT), HRV2; assay type: cell-based, human rhinovirus; settings: HeLa (Ohio strain) cells, MTT method, 33° C.
# [1] = system: human rhinovirus type 1B (HRV 1B, B632); test: Anti-rhinovirus activity (MTT), HRV1B; assay type: cell-based; settings: HeLa (Ohio strain) cells, MTT method, 33° C.
# [2] = system: Poliovirus type 1 (Polio 1, Sabin); test: microbe, parasite or virus in culture; assay type: cell-based
# [3] = system: coxsackievirus type A7 (CA7); test: In vitro anti-picornavirus activity (MTT), CA7; assay type: cell-based; settings: HeLa-S3 cells, MTT method, 37° C.
# [4] = system: echovirus type 11 (Echo 11, Gregory); test: In vitro anti-picornavirus activity (MTT), Echo 11; assay type: cell-based; settings: HeLa-S3 cells, MTT method, 37° C.
# HeLa (Ohio strain)cells = test: Cytotoxicity (MTT, without virus), HeLa(Ohio); settings: HeLa(Ohio), no virus, incubated for 4 days
# HeLa cells = test: Cytotoxicity (MTT, without virus), HeLa; settings: HeLa, no virus, incubated for 4 days
# [5] = system: coxsackievirus type B4 (CB4,JVB); test: In vitro anti-picornavirus activity (MTT), CB4; assay type: cell-based; settings: HeLa cells, MTT method, 37° C.
SMILES,IC50 HRV89 (HRV 89 (41617-Gallo)),Cytotoxicity CC50 HeLa-S3 (HeLa-S3 cells),IC50 HRV2 (HRV 2 (HGP)),IC50 HRV1B [1],IC50 Polio 1 [2],IC50 CA7 [3],IC50 Echo 11 [4],Cytotoxicity CC50 HeLa(Ohio) (HeLa (Ohio strain)cells),Cytotoxicity CC50 HeLa (HeLa cells),IC50 CB4 [5]
Cc1c(OCC(C)C)ccc2c1c(=O)cc(-c1ccccc1)n2C [Compound A186],0.26 µg/mL,>5 µg/mL,>1.7 µg/mL,1.1 µg/mL,0.67 µg/mL,3.0 µg/mL,0.27 µg/mL,5.0 µg/mL,>5 µg/mL,1.2 µg/mL
CCn1c(-c2ccccc2)cc(=O)c2c(C)c(OCC(C)C)ccc21 [Compound A187],0.15 µg/mL,>4 µg/mL,0.57 µg/mL,0.71 µg/mL,0.53 µg/mL,3.0 µg/mL,0.21 µg/mL,>4 µg/mL,>4 µg/mL,0.99 µg/mL
CCn1c(-c2ccccc2)c(C)c(=O)c2c(C)c(OCC(C)C)ccc21 [Compound A188],0.25 µg/mL,>5 µg/mL,0.33 µg/mL,0.81 µg/mL,0.31 µg/mL,1.2 µg/mL,0.27 µg/mL,>5 µg/mL,>5 µg/mL,1.1 µg/mL
COc1ccc(-c2c(C)c(=O)c3c(C)c(OCC(C)C)ccc3n2C)cc1C [Compound A190],0.28 µg/mL,>4 µg/mL,0.57 µg/mL,2.0 µg/mL,0.58 µg/mL,3.2 µg/mL,0.23 µg/mL,>4 µg/mL,>4 µg/mL,2.4 µg/mL
Cc1c(-c2ccccc2)n(C)c2ccc(OCC(C)C)c(N)c2c1=O.Cl [Compound A194],0.18 µg/mL,>2.5 µg/mL,0.49 µg/mL,0.05 µg/mL,0.58 µg/mL,1.7 µg/mL,0.45 µg/mL,>2.5 µg/mL,>2.5 µg/mL,1.3 µg/mL
COc1c(OCC(C)C)ccc2c1c(=O)c(C)c(-c1ccccc1)n2C [Compound A196],0.86 µg/mL,>10 µg/mL,1.8 µg/mL,5.9 µg/mL,1.1 µg/mL,9.7 µg/mL,0.44 µg/mL,>10 µg/mL,>10 µg/mL,1.9 µg/mL
COc1cc2c(=O)c(C)c(-c3ccccc3)n(C)c2cc1C(C)C [Compound A226],<0.033 µg/mL,>10 µg/mL,0.73 µg/mL,1.6 µg/mL,0.93 µg/mL,9.7 µg/mL,0.33 µg/mL,>10 µg/mL,>10 µg/mL,>3.3 µg/mL
Cc1cc2c(cc1OCC(C)C)c(=O)c(C)c(-c1ccccc1)n2C [Compound A234],0.32 µg/mL,>5 µg/mL,0.26 µg/mL,1.0 µg/mL,0.89 µg/mL,3.8 µg/mL,0.25 µg/mL,>5 µg/mL,>5 µg/mL,2.5 µg/mL
CCn1c(-c2ccccc2)c(C)c(=O)c2cc(OCC(C)C)c(C)cc21 [Compound A235],0.35 µg/mL,>4 µg/mL,0.24 µg/mL,0.75 µg/mL,0.72 µg/mL,2.8 µg/mL,0.27 µg/mL,>4 µg/mL,>4 µg/mL,2.9 µg/mL
COc1ccc(-c2c(C)c(=O)c3cc(OCC(C)C)c(C)cc3n2C)cc1C [Compound A237],0.46 µg/mL,>4 µg/mL,0.29 µg/mL,2.0 µg/mL,1.1 µg/mL,>4 µg/mL,0.40 µg/mL,>4 µg/mL,>4 µg/mL,2.9 µg/mL
Cc1c(-c2ccccc2)n(C)c2cc(C(C)C)c(OC(C)C)cc2c1=O [Compound A258],0.66 µg/mL,>5 µg/mL,0.45 µg/mL,0.62 µg/mL,0.62 µg/mL,4.9 µg/mL,0.23 µg/mL,4.9 µg/mL,4.5 µg/mL,>1.6 µg/mL
Cc1cc2c(c(C)c1OCC(C)C)c(=O)cc(-c1ccccc1)n2C [Compound A285],0.46 µg/mL,>4 µg/mL,0.18 µg/mL,0.68 µg/mL,0.69 µg/mL,3.1 µg/mL,0.2 µg/mL,>4 µg/mL,>4 µg/mL,1.9 µg/mL
Cc1cc2c(c(C)c1OCC(C)C)c(=O)c(C)c(-c1ccccc1)n2C [Compound A286],0.61 µg/mL,>5 µg/mL,0.23 µg/mL,0.87 µg/mL,1.3 µg/mL,>5 µg/mL,0.57 µg/mL,>5 µg/mL,>5 µg/mL,1.4 µg/mL
CCn1c(-c2ccccn2)cc(=O)c2cc(C(C)C)ccc21 [Compound A296],4.8 µg/mL,>100 µg/mL,2.0 µg/mL,4.5 µg/mL,5.1 µg/mL,20 µg/mL,1.7 µg/mL,68 µg/mL,75 µg/mL,17 µg/mL
CC(C)c1ccc2c(c1)c(=O)cc(-c1ccco1)n2C [Compound A303],1.9 µg/mL,>20 µg/mL,0.97 µg/mL,1.4 µg/mL,1.4 µg/mL,6.5 µg/mL,0.83 µg/mL,>20 µg/mL,>20 µg/mL,3.6 µg/mL
CC(C)c1ccc2c(c1)c(=O)cc(-c1ccn(C)c1)n2C [Compound A306],0.88 µg/mL,26 µg/mL,0.73 µg/mL,0.89 µg/mL,0.83 µg/mL,2.9 µg/mL,0.49 µg/mL,25 µg/mL,14 µg/mL,2.1 µg/mL
CCn1c(-c2ccn(C)c2)cc(=O)c2cc(C(C)C)ccc21 [Compound A307],0.86 µg/mL,>20 µg/mL,0.39 µg/mL,0.83 µg/mL,0.79 µg/mL,1.9 µg/mL,0.34 µg/mL,18 µg/mL,>20 µg/mL,1.3 µg/mL
CC(C)c1ccc2c(c1)c(=O)cc(-c1cccs1)n2C [Compound A308],0.94 µg/mL,16 µg/mL,0.36 µg/mL,0.81 µg/mL,0.87 µg/mL,3.9 µg/mL,0.31 µg/mL,11 µg/mL,11 µg/mL,1.6 µg/mL
CCn1c(-c2cccs2)cc(=O)c2cc(C(C)C)ccc21 [Compound A309],0.58 µg/mL,18 µg/mL,0.25 µg/mL,0.48 µg/mL,0.76 µg/mL,3.3 µg/mL,0.28 µg/mL,14 µg/mL,12 µg/mL,1.5 µg/mL
CCn1c(-c2cccs2)c(C)c(=O)c2cc(C(C)C)ccc21 [Compound A311],1.2 µg/mL,>10 µg/mL,0.53 µg/mL,1.0 µg/mL,0.67 µg/mL,3.3 µg/mL,0.42 µg/mL,>10 µg/mL,6.8 µg/mL,2.0 µg/mL
